Test results published in patent publication US8784887B2, “Pharmaceutical preparation of N-[5-(aminosulfonyl)-4-methyl-1,3-thiazol-2-yl]-N-methyl-2-[4-(2-pyridinyl)phenyl]acetamide” (Aicuris GmbH & Co. KG, priority 2005, dated 2014).

Experiment: release experiments with pure active compound (I) and with state-of-the-art preparations
Format: physicochemical
Conditions: release experiments using pure active compound (I)
Text: If those preparations known from the state of the art are applied to the active compound (I) described here, it has unexpectedly been shown that there is no immediate release of the active compound but that there is a markedly delayed release which is therapeutically not desired.

release behavior of pure active compound (in words): “clumping” or a gel formation
SMILES: Cc1nc(N(C)C(=O)Cc2ccc(-c3ccccn3)cc2)sc1S(N)(=O)=O [active compound (I), N-[5-(Aminosulfonyl)-4-methyl-1,3-thiazol-2-yl]-N-methyl-2-[4-(2-pyridinyl)phenyl]acetamide]
